Results taken from US9180159B2, “Use of cell-permeable peptide inhibitors of the JNK signal transduction pathway for the treatment of chronic or non-chronic inflammatory digestive diseases” (Xigen Inflammation Ltd., priority 2008, dated 2015).

Tests used:
[1] = test system: TC-3 cell cultures; assay: Cellular import and intracellular persistence of fluorescein-labeled peptides in TC-3 cells; format: cell-based; settings: 1 μM
Description: The ability of the L- and D-enantiomeric forms of TAT and TAT-IB1(s) peptides (“TAT-IB peptides”) to enter cells was evaluated. L-TAT, D-TAT, L-TAT-IB1(s), and D-TAT-IB1(s) peptides [SEQ ID NOs: 5, 6, 9 and 12, respectively] were labeled by N-terminal addition of a glycine residue conjugated to fluorescein. Labeled peptides (1 μM) were added to TC-3 cell cultures, which were maintained as described in Example 3. At predetermined times cells were washed with PBS and fixed for five minutes in ice-cold methanol-acetone (1:1) before being examined under a fluorescence microscope. Fluorescein-labeled BSA (1 μM, 12 moles/mole BSA) was used as a control.
Little to no signal was present at 48 hours.

[2] = test system: recombinant JNK1, JNK2 and JNK3; assay: Solid phase kinase assay, phosphorylation of c-Jun, ATF2 and Elk1 by recombinant JNKs; format: biochemical
Description: (§1) The effects of the peptides on JNKs-mediated phosphorylation of their target transcription factors were investigated in vitro. Recombinant and non activated JNK1, JNK2 and JNK3 were produced using a TRANSCRIPTION AND TRANSLATION rabbit reticulocyte lysate kit (Promega) and used in solid phase kinase assays with c-Jun, ATF2 and Elk1, either alone or fused to glutathione-S-transferase (GST), as substrates. Dose response studies were performed wherein L-TAT or L-TAT-IB1(s) peptides (0-25 μM) were mixed with the recombinant JNK1, JNK2, or JNK3 kinases in reaction buffer (20 mM Tris-acetate, 1 mM EGTA, 10 mM p-nitrophenyl-phosphate (pNPP), 5 mM sodium pyrophosphate, 10 mM p-glycerophosphate, 1 mM dithiothreitol) for 20 minutes. The kinase reactions were then initiated by the addition of 10 mM MgCl2 and 5 pCi ^33P-dATP and 1 μg of either GST-Jun (aa 1-89), GST-AFT2 (aa 1-96) or GST-ELK1 (aa 307-428). GST-fusion proteins were purchased from Stratagene (La Jolla, Calif.).
Ten μL of glutathione-agarose beads were also added to the mixture. Reaction products were then separated by SDS-PAGE on a denaturing 10% polyacrylamide gel. Gels were dried and subsequently exposed to X-ray films (Kodak). […] The ability of D-TAT, D-TAT-IB1(s) and L-TAT-IB1(s) peptides (0-250 μM dosage study) to inhibit GST-Jun (aa 1-73) phosphorylation by recombinant JNK1, JNK2, and JNK3 by were analyzed as described above. Overall, D-TAT-IB1(s) peptide decreased JNK-mediated phosphorylation of c-Jun, but at levels approximately 10-20 fold less efficiently than L-TAT-IB1(s).

[3] = target: T1, JNK3 (Homo sapiens, UniProt P53779); assay: Solid phase kinase assay, JNK3 phosphorylation of Elk1; format: biochemical; settings: dose response 0-25 μM
T1 construct: host or cells: cell-free: rabbit reticulocyte lysate, in vitro transcription and translation
Description: as §1
Ten μL of glutathione-agarose beads were also added to the mixture. Reaction products were then separated by SDS-PAGE on a denaturing 10% polyacrylamide gel. Gels were dried and subsequently exposed to X-ray films (Kodak). […] The ability of D-TAT, D-TAT-IB1(s) and L-TAT-IB1(s) peptides (0-250 μM dosage study) to inhibit GST-Jun (aa 1-73) phosphorylation by recombinant JNK1, JNK2, and JNK3 by were analyzed as described above. […]

[4] = test system: JNKs from UV-light irradiated HeLa cells or IL-1 treated PTC cells; assay: c-Jun phosphorylation by activated JNKs pulled down with GST-Jun from stressed cells; format: biochemical; settings: 25 μM peptide
Description: The effects of the L-TAT or L-TAT-IB1(s) peptides as defined herein on JNKs activated by stressful stimuli were evaluated using GST-Jun to pull down JNKs from UV-light irradiated HeLa cells or IL-1 treated PTC cells. PTC cells were cultured as described above. HeLa cells were cultured in DMEM medium supplemented with 10% Fetal Calf Serum, 100 μg/mL Streptomycin, 100 units/ml Penicillin and 2 mM Glutamine. One hour prior to being used for cell extract preparation, PTC cells were activated with IL-1 as described above, whereas HeLa cells were activated by UV-light (20 J/m^2). Cell extracts were prepared from control, UV-light irradiated HeLa cells and IL-1 treated TC-3 cells by scraping the cell cultures in lysis buffer (20 mM Tris-acetate, 1 mM EGTA, 1% Triton X-100, 10 mM p-nitrophenyl-phosphate, 5 mM sodium pyrophosphate, 10 mMP-glycerophosphate, 1 mM dithiothreitol). Debris were removed by centrifugation for five minutes at 15,000 rpm in an SS-34 Beckman rotor. One-hundred μg extracts were incubated for one hour at room temperature with one μg GST-jun (amino acids 1-89) and 10 μL of glutathione-agarose beads (Sigma). Following four washes with the scraping buffer, the beads were resuspended in the same buffer supplemented with L-TAT or L-TAT-IB1(s) peptides (25 μM) for 20 minutes. […]

[5] = test system: JNK mediated activation of c-Jun in HeLa cells; assay: GAL4-Jun luciferase reporter assay in HeLa cells with MKK4/MKK7 co-transfection; format: cell-based; settings: 1 μM peptide, 16 hours
Excerpt: To determine whether the cell-permeable peptides as defined herein could block JNK signaling in vivo, we used a heterologous GAL4 system. HeLa cells, cultured as described above, were co-transfected with the 5×GAL-LUC reporter vector together with the GAL-Jun expression construct (Stratagene) comprising the activation domain of c-Jun (amino acids 1-89) linked to the GAL4 DNA-binding domain. Activation of JNK was achieved by the co-transfection of vectors expressing the directly upstream kinases MKK4 and MKK7 (see Whitmarsh et al, Science 285: 1573 (1999)). Briefly, 3×10^5 cells were transfected with the plasmids in 3.5-cm dishes using DOTAP (Boehringer Mannheim) following instructions from the manufacturer. For experiments involving GAL-Jun, 20 ng of the plasmid was transfected with 1 μg of the reporter plasmid pFR-Luc (Stratagene) and 0.5 μg of either MKK4 or MKK7 expressing plasmids. Three hours following transfection, cell media were changed and TAT and TAT-IB1(s) peptides (1 μM) were added. The luciferase activities were measured 16 hours later using the “Dual Reporter System” from Promega after normalization to protein content. […] Because HeLa cells express JNK1 and JNK2 isoforms but not JNK3, we transfected cells with JNK3.

[6] = test system: TC-3 cells; assay: IL-1 induced pancreatic beta-cell death in TC-3 cells treated with peptides; format: cell-based; settings: one single addition 1 μM, IL-1 10 ng/ml every two days
Description: Inhibition of IL-1 induced pancreatic beta-cell death by the D-TAT-IB1(s) peptide was analyzed. TC-3 cells were incubated as described above for 30 minutes with one single addition of the indicated peptides (1, μM), then IL-1 (10 ng/ml) was added.
Apoptotic cells were then counted after two days of incubation with IL-1 by use of Propidium Iodide and Hoechst 33342 nuclear staining. A minimum of 1,000 cells were counted for each experiment.
Long term inhibition of IL-1P induced cell-death by the D-TAT-IB1 peptide was also analyzed. TC-3 cells were incubated as above for 30 minutes with one single addition of the indicated peptides (1 μM), then IL-1 (10 ng/ml) was added, followed by addition of the cytokine every two days. Apoptotic cells were then counted after 15 days of incubation with IL-1 by use of propidium iodide and Hoechst 33342 nuclear staining. […] A minimum of 1.000 cells were counted for each experiment.

[7] = test system: AP-1 DNA binding complex; assay: Gel retardation assay with AP-1 probe, HeLa cell nuclear extracts; format: cell-based; settings: in the presence of TNF-alpha, peptide added 30 minutes before
[8] = test system: Insulin producing TC-3 cells; settings: previously shown (Ammendrup et al.); cited from earlier work

T1 sequence (P53779 whole entry, species assumed): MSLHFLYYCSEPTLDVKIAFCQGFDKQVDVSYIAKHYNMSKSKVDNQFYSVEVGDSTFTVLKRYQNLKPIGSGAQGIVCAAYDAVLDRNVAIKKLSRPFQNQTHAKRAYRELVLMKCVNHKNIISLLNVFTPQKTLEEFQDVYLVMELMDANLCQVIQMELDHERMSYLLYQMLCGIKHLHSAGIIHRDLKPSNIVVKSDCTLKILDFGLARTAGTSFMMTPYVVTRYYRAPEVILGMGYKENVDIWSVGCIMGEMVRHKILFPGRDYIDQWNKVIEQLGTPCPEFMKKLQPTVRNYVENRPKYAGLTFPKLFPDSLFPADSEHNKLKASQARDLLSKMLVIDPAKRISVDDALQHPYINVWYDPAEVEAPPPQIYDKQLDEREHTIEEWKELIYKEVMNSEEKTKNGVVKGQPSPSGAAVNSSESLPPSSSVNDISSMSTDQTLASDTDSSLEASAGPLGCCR

Molecule: NH2-GRKKRRQRRRPPRPKRPTTLNLFPQVPRSQD-COOH (H-GRKKRRQRRRPPRPKRPTTLNLFPQVPRSQD-OH) [L-TAT-IB1(s)]
- entry into cells [1]: efficiently and rapidly (less than five minutes) entered cells
- inhibiting JNK family phosphorylation of their target transcription factors, overall [2]: superior effects
- peptide dose at which nearly complete inhibition of c-Jun, ATF2 and Elk1 phosphorylation by JNKs was observed (as low as) ([2]; dose response 0-25 μM): 2.5 µM
- inhibition of JNK3 phosphorylation of Elk1 [3]: absence of TAT-IB(s) inhibition
- prevention of phosphorylation of c-Jun by activated JNKs [4]: efficiently prevented phosphorylation of c-Jun
- activation of c-Jun following MKK4 and MKK7 mediated activation of JNK (luciferase) [5]: blocked activation of c-Jun
- long term protection from IL-1 induced cell-death, 15 days [6]: not
- formation of the AP-1 DNA binding complex [7]: decrease the formation of the AP-1 DNA binding complex

B1: JBD1-280: the GFP vector linked to the entire JBD (aa 1-280) (protein, UniProt Q9UQF2 1-280, looked up, fragment)
chain: MAERESGGLGGGAASPPAASPFLGLHIASPPNFRLTHDISLEEFEDEDLSEITDECGISLQCKDTLSLRPPRAGLLSAGGGGAGSRLQAEMLQMDLIDATGDTPGAEDDEEDDDEERAARRPGAGPPKAESGQEPASRGQGQSQGQSQGPGSGDTYRPKRPTTLNLFPQVPRSQDTLNNNSLGKKHSWQDRVSRSSSPLKTGEQTPPHEHICLSDELPPQSGPAPTTDRGTSTDSPCRRSTATQMAPPGGPPAAPPGGRGHSHRDRIHYQADVRLEATEE
modifications: fused to GFP
- block of IL1 induced pancreatic beta-cell apoptosis by transfection [8]: blocked
